Measurements: US20110195910A1, “USE OF TOCOTRIENOL COMPOSITION FOR THE PREVENTION OF CANCER” (DAVOS LIFE SCIENCE PTE. LTD., priority 2008, published 2011)

How the values were obtained:
MDA-MB-231 cells = test: Flow cytometry, western blotting and RT-PCR, MDA-MB-231 cells; type: cell-based, human; conditions: MDA-MB-231
Description: 1.1.3 Flow cytometry—Cell cycle distribution was examined using flow cytometry. Briefly, cells were harvested by trypsinization, fixed in 70% ethanol at 4° C. overnight, and then resuspended in PBS. After incubation at 4° C. for overnight, 2×10^6 cells were incubated with in 20 μg/ml propidium iodide (PI) and 2 mg RNaseA for 15 minutes at 37° C. Cells were then examined by BD SLRII cytometer and the results were analyzed using ModFit software (Becton Dickinson, Mountain View, Calif.). Data were expressed as the percentage of cell cycle distribution in the entire population.
1.1.5 Western blotting—Detailed protocols have been described previously and are known in the art. Briefly, cell lysates were prepared by suspending cell pellets in lysis buffer [50 mmol/l Tris-HCl (pH 8.0), 150 mmol/l NaCl, 1% NP40, 0.5% deoxycholate, 0.1% SDS, 1 mg/ml aprotinin, 1 μg/ml leupeptin and 1 mmol/l phenylmethylsulfonyl fluoride]. For nuclear protein extraction, NucBuster™ protein extraction kit was used. Protein concentration was measured using the DC Protein Assay kit (Bio-Rad, Hercules, Calif.). Equal amount of protein (30 μg) was loaded onto a 10% SDS polyacrylamide gel for electrophoresis and then transferred onto a polyvinylidene difluoride membrane (Amersham, Piscataway, N.J.). The membrane was then incubated with primary antibodies for 1 hr at room temperature against E-cadherin (BD Biosciences, Bedford, Mass.), α-catenin, β-catenin, γ-catenin, Id-1, Id-3, EGFR, phosphor-c-jun, phosphor-ATF2, cleaved PARP, vimentin, α-smooth muscle actin, twist (Santa Cruz Biotechnology, Calif.), phosphor-IkB-alpha (Ser32/36), phosphor-IKK alpha (Seri 80)/IKK beta (Ser181), phosphor-SAPK/JNK (Thr183/Tyr185) G9, SAPK/JNK, NF-kB p65 (5A5) (Cell Signaling Technology Inc, Beverly, Mass.), Snail (Abcam). After incubation with appropriate secondary antibodies, signals were visualized by ECL western blotting system (Amersham, Piscataway, N.J.). Expression of β-actin and histone H1 were assessed as an internal loading control for total cell lysate and nuclear protein lysate respectively.
3.1.5 DNA fragmentation assay—After 24 hrs incubation with gamma-T3, 3×10^6 MDA-MB-231 cells were harvested and suspended in lysis buffer [5 mM Tris-HCl (pH 8.0), 20 mM EDTA, and 0.5% (v/v) Triton X-100] for 60 min on ice. Samples were centrifuged, the supernatants were removed and incubated with 5 μl RNase A (10 μg/ml) at 37° C. for 40 min, and 1 ml of anhydrous ethanol was added. Tubes were placed at […] for 20 min and then centrifuged to pellet the DNA. DNA samples were analyzed by electrophoresis at 80 V for 3 hrs on a 2% agarose gel containing ethidium bromide (0.2 μg/ml) and visualized under UV illumination.
3.1.6 Terminal deoxynucleotidyltransferase-mediated deoxyuridine triphosphate nick end-labelling (TUNEL) assay—DNA strand breaks during apoptosis was examined using in situ cell death detection reagent (Roche Applied Science). Briefly, 1×10^6 cells were pretreated with gamma-T3 for 24 hrs. Thereafter, cells were incubated with reaction mixture for 60 min at 37° C. Stained cells were analyzed and captured by fluorescence microscope on glass slide.
3.1.7 Flow cytometry was carried out as described above under item 1.1.3. Matrigel-invasion assay was carried out as described above under item 1.1.4. Western blotting was carried out as described above under item 1.1.5.
3.1.8 Id-1 RT-PCR—Total RNA was isolated using Trizol® reagent according to the manufacturer's protocol (Invitrogen). cDNA was synthesized using the SuperScript™ First Strand Synthesis System (Invitrogen) and was then amplified by PCR with Id-1 specific primers (forward primer, Id1-S, 5′-CTCCAGCACGTCATCGACTA-3′ and reverse primer, Id1-AS,5′-AAC GCA TGC CGC CTC-3′). PCR cycling protocol was as follows: 30 cycles of 10 min at 95° C., 30 s at 95° C., 30 s at 55° C., 1 min at 72° C. and 10 min at 72° C. Glyceraldehyde 3-phosphate dehydrogenase was amplified as an internal control. […]

[1] = test system: human androgen-dependent PCa cells (LNCaP); test: MTT cell viability, LNCaP cells; type: cell-based
Description: 2.1.3 Cell viability study and time course experiment—For cell viability study, 5×10^3 cells resuspended in 100 μl medium were plated into each well of a 96-well plate. The cells were then treated with different concentrations (20, 40, 60, 80, 100 μM) of the vitamin-E isomers for 24 and 48 hrs. After the treatment, 20 μl of MTT solution was added into each well and the cells were incubated at 37° C. for 2 hrs. The formazan crystals were then re-suspended in 200 μl of DMSO and the intensity at 595 nm were measured. For JNK inhibitor study, cells were pre-treated with 20 μM of SP600125 for 8 hrs prior to the addition of vitamin-E isomers. For time course study, 5×10^3 cells (LNCaP and PC3) were treated with IC50 concentrations of the vitamin-E isomers and were subjected to MTT assay at the indicated time point. […] After 24 hrs, cells were subjected to western blotting and MTT assays respectively.

[2] = test system: prostate intraepithelial neoplasia (PIN); test: Prevention of prostate intraepithelial neoplasia (PIN) in prostate cancer mouse models; type: in vivo; conditions: fed mice, FIG. 8
Description: For experiments, 5-week old prostate cancer mouse models previously published (Gabril, M. Y., Duan, W., et al., Molecular Therapy (2005), vol. 11, no. 3, p. 348; Greenberg et al., Proc Natl Acad Sci USA (1995), vol. 92, pp. 3439-3443; Duan, W., Gabril, M. Y., et al., Oncogene (2005) 24, 1510-1524; Wang S, Gao J, et al., Cancer Cell., 2003, vol. 4, no. 3, pp. 209-21; Gabril, M. Y., Onita, T., et al., Gene Ther., 2002, vol. 9, no. 23, pp. 1589-99) are used. All animal experiments were conducted according to standard protocols approved by Animal Care Committee. Genotyping was performed in PSP-TGMAP, and KIMAP mice were identified by a quick PCR genotyping protocol as previously reported (see above references referred to under item 6).
In one exemplary experiment, the animals are given 1 mg of gamma tocotrienol per day for 30 weeks via oral gavage. At the end of 10, 20 and 30 weeks, animals are sacrificed. The prostate along with the male accessory glands, i.e., the ventral and dorsolateral prostate lobes, seminal vesicles, and coagulation gland, were dissected out separately for histopathological characterization of prostate tumor development, prostate intraepithelial neoplasia (PIN) development and microinvasion. […]

[3] = test system: human estrogen-independent BCa cells (MDA-MB-231); test: MTT cell viability, MDA-MB-231 cells; type: cell-based; conditions: MDA-MB-231, 24 hours
Description: 1.1.3 Cell viability study and time course experiment—For cell viability study, 1×10^4 cells resuspended in 100 μl medium were plated into each well of a 96-well plate. The cells were then treated with different concentrations of the vitamin-E isomers for 24 hrs. After the treatment, 20 μl of 3-(4,5-Dimethyl thiazol-2-yl)-2,5-diphenyl tetrazolium bromide (MTT) solution was added into each well and the cells were incubated at 37° C. for 2 hrs. The formazan crystals were then re-suspended in 200 μl of DMSO and the intensity at 595 nm was measured. For JNK inhibitor study, cells were pre-treated with 20 μM of SP600125 for 8 hrs prior to the addition of vitamin-E isomers. For time course study, 5×10^3 cells were treated with different concentrations of the vitamin-E isomers and were subjected to MTT cell proliferation assay at the indicated time point. If IC50 for the isomer is >100 μM, 100 μM will be used as treatment dosage.
3.1.4 Cell viability and time course experiments were carried out as described above under item 1.1.3 with the following difference. For inhibitors study, cells were pre-treated with inhibitors (U0126, PD98059 and APN) at targeted dosage for 8 hrs prior to the addition of vitamin-E isomers.

DU145 prostaspheres = test: Treatment of pre-formed CSC-enriched DU145 prostaspheres; type: cell-based; conditions: 40 ng/ml, 48 hrs
Description: (A) CSC enriched prostaspheres were formed by maintaining DU145 cells in non-adherent culture supplemented with serum replacement medium for 14 days. The prostaspheres were then treated with either vehicle, γ-T3 (10, 20 μg/ml) or Docetaxel (Doc, 40 ng/ml) for 48 hrs. Spheroids were counted under microscope before and after treatment. Results were presented as mean % change in spheroid number to control±s.d. Note that spheroids were highly sensitive to γ-T3 treatment but resistant to high dose of Docetaxel. (B) Images of prostaspheres after 48 hrs treatment with vehicle, 40 ng/ml of Docetaxel and 10 μg/ml of γ-T3.
5.1.7 Spheroid formation assay—Spheroid formation assay was performed with a protocol modified from previous study (Folkins C, p3560). Briefly, cells were first trypsinized, washed with 1× PBS and resuspended in DMEM F12 medium. Two hundred cells were added into each well of a 24-well-plate pre-coated with polyHEMA (Sigma, St. Louis, Mo.). Cells will be grown in DMEM/F12 mem (Invitrogen, Carlsbad, Calif.) supplemented with 4 μg/mL insulin (Sigma, St. Louis, Mo.), B27 (Invitrogen, Carlsbad, Calif.), 20 ng/mL EGF (Sigma, St. Louis, Mo.), and 20 ng/mL basic FGF (Invitrogen, Carlsbad, Calif.). Fresh medium with the above supplements was added every day. γ-T3 was added at indicated time points and the number of spheroids was counted at day 14 of the assay or at the end of the treatment. Each experiment was repeated in triplicates and each data point represented the mean and standard derivation.

DU145 = conditions: cited from earlier work

N#CCCN [β-aminopropionitrile, reference compound]
Id1 expression on co-treatment with gamma-T3 (MDA-MB-231 cells): almost completely restored the expression of Id1

CC(C)=CCC/C(C)=C/CC/C(C)=C/CC[C@]1(C)CCc2cc(O)cc(C)c2O1 [δ-T3, 8-methyltocotrienol]
potency in suppressing cell growth in LNCaP ([1]; compared with the other isomers): more potent | development of prostate intraepithelial neoplasia (PIN) [2]: did not develop PIN

COc1cccc(-c2cc(=O)c3ccccc3o2)c1N [PD98059]
cancer cell viability after gamma-T3 treatment with MAPK inhibitor [3]: not able to restore cancer cell viability

Cc1c(O)cc2c(c1C)O[C@](C)(CCC[C@H](C)CCC[C@H](C)CCCC(C)C)CC2 [γ-T, 7,8-dimethyltocol, reference compound]
induction of apoptosis in LNCaP cells ([1]; data not shown): induce apoptosis in LNCaP cells at a dose similar to γ-T3

N#CC(=C(/N)Sc1ccccc1N)/C(C#N)=C(\N)Sc1ccccc1N [U0126]
cancer cell viability after gamma-T3 treatment with MAPK inhibitor [3]: not able to restore cancer cell viability

CC(=O)O[C@@]12CO[C@@H]1C[C@H](O)[C@@]1(C)C(=O)[C@H](O)C3=C(C)[C@@H](OC(=O)[C@H](O)[C@@H](NC(=O)OC(C)(C)C)c4ccccc4)C[C@@](O)([C@@H](OC(=O)c4ccccc4)[C@H]21)C3(C)C [Docetaxel, (2R,3S)—N-carboxy-3-phenylisoserine, N-tert-butylester, 13-ester with 5,20-epoxy-1,2,4,7,10,13-hexahydroxytax-11-en-9-one-4-acetate-2-benzoate, trihydrate, reference compound]
effect on prostasphere number (DU145 prostaspheres): failed to induce any observable effect on prostasphere number | IC90 dosage (DU145): 1.01 ng/mL
